Data taken from patent US7018836B1, “P-TEFb compositions, methods and screening assays” (priority 1996, dated 2006).

Key:
[1] = target: T1, human P-TEFb (Homo sapiens, UniProt P50750); assay: CTD kinase assay with immunoprecipitated human P-TEFb and Drosophila RNA polymerase II as substrate (FIG. 7B); type: biochemical; details: for IC50: immunoprecipitated human P-TEFb, 10 μM ATP, read-out: 50% inhibition point, CTD kinase assay
T1 construct: endogenous in cells; host or cells: HeLa nuclear extract (HNE), immunoprecipitate on anti-PITALRE-CT beads
Protocol: For every 50 μl of HNE, 10 μl of protein A beads containing 1 μg of bound IgG was used. After depletion of HNE, the antibody-containing beads were extensively washed with 100 times the bead volume of 20 mM HEPES (pH 7.6), 0.5% NP-40, 1% Triton X-100, and 5 mM DTT, 600 mM or indicated concentration of NaCl, and then washed with 25 times the bead volume of 20 mM HEPES (pH 7.6) and 1 mM DTT. The amounts of the washed beads used for the kinase assays and silver staining were the equivalent of 1 μl and 10 μl of HNE, respectively.
CTD kinase assays were performed in a […] reaction containing 20 mM HEPES (pH7.6), 10 μM ATP, 5 μCi [γ-^32P]ATP, 10 ng Drosophila RNA polymerase II, 5 mM MgCl2, and purified Drosophila P-TEFb or immunoprecipitated human P-TEFb. In the reactions containing DRB it was added to 50 μM unless other indicated amounts were used. The reactions were incubated at 30° C. for 1 hour.

[2] = test system: runoff transcription from HIV-1 LTR in HNE (human P-TEFb); assay: Transcription of HIV LTR template in HeLa nuclear extract (HNE), 633-nt runoff (FIG. 7A); type: biochemical; details: for IC50: HNE, HIV LTR template, read-out: 50% inhibition point, transcription assay
Protocol: The transcription template (Nco I-digested pLTR-4/CAT vector containing the HIV-1 LTR from −153 to +80) was used in a pulse-chase transcription experiment. Reactions (12 μl total; 20 mM HEPES, pH 7.6, 7 mM MgCl2, 20 μg/ml DNA template, 3 μl HNE, 64 mM KCl, with 50 μM DRB or 0.3 μl Drosophila P-TEFb (Marshall et al., 1996) as indicated) were pre-incubated for 20 minutes at 30° C., pulsed for 2 minutes by adding ATP, GTP, UTP to 600 μM each and 5 μCi [α-^32P]CTP (˜0.1 mM), and chased for 5 minutes by adding CTP to 1.2 mM. Reactions were stopped, phenol extracted and analyzed on a 6% polyacrylamide gel as described (Marshall and Price, 1995). pLTR-TAR-Luc and pLTR-DTAR-Luc plasmids were digested with Eco RI to generate TAR and DTAR template that were used in the studies. The TAR template contains HIV-1 LTR from −475 to +76, while the DTAR template contains HIV-1 LTR from −475 to +19. Transcription with TAR and DTAR templates generates runoffs of 694 and 646 nucleotides, respectively. The transcription reaction mix contained 20 mM HEPES (pH7.6), 7 mM MgCl2, 60 mM KCl, 0.5 μl HNE (or depHNE as indicated), 20 μg/ml TAR template (or DTAR template as indicated), indicated amount of HIV-1 Tat (86 residue HIV-1 Tat followed by a streptavidin binding tag at its carboxyl terminus) and DRB. The reaction mix was pre-incubated for 15 minutes at 30° C. and the transcription was started by adding nucleotides to final concentrations of 50 μM ATP, 50 μM GTP, 50 μM UTP, 10 μM CTP, and 5 μCi [α-^32P]CTP (˜0.1 mM), and continuously labeled for 20 minutes, or by adding nucleotides to final concentrations of 50 μM ATP, 50 μM GTP, 50 μM UTP, and 5 μCi [α-^32P]CTP (˜0.1 mM), and pulsed for 2 minutes. The reactions were stopped and reaction mix were phenol-extracted. The transcripts were then analyzed on a 6% polyacrylamide gel as described (Marshall and Price, 1995).

[3] = test system: HeLa cells; details: added to HeLa cells; cited from earlier work
[4] = target: T2, TAK (Homo sapiens, UniProt P50750); assay: TAK activity assay (GST-Tat pull-down, CTD3 peptide); type: biochemical; details: in a manner similar to P-TEFb
T2 construct: Nuclear extract, cytoplasmic extract, or fractions containing partially purified TAK were incubated with glutathione-Sepharose beads containing GST-Tat fusion proteins; endogenous in cells; host or cells: HeLa cell extract or partially purified HeLa cytoplasmic fraction; GST-Tat made in E. coli DE3 (BL21)
Protocol: Preparation of Tat fusion proteins and the TAK pull-down assay were conducted as described by Herrmann and Rice (Herrmann and Rice, 1993; 1995) with modifications as described. Nuclear extract, cytoplasmic extract, or fractions containing partially purified TAK were incubated with glutathione-Sepharose beads containing GST-Tat fusion proteins for 1 hour at 4° C. with gentle rocking. DE3 (BL21) bacteria containing the GST-Tat expression vectors were obtained from NIH AIDS Research and Reference Reagent Program. For maximum sensitivity, GST-Tat48Δ was used unless otherwise specified. The beads (30 μl, 50% slurry) were washed 6 to 8 times with 1 ml EBCD buffer (50 mM Tris, pH 8.0, 120 mM NaCl, 0.5% Nonidet P-40, and 5 mM DTT) containing 0.03% SDS, then 2 to 4 times with Tat kinase buffer (TKB/Mg: 50 mM Tris-HCl, pH 7.6, 5 mM DTT, 5 mM MnCl2, and 4 mM MgCl2), and brought to 50 μl with TKB/Mg buffer and kinase assay mix. The final reaction contained 2 μM ATP, 10 μCi y-^32P-ATP (ICN, 3000 Ci/mmole), and 50–100 μM of CTD trimer peptide CTD3 ([…], SEQ ID NO:68). Reactions were incubated at 25° C. for 40 minutes, stopped by boiling in Laemmli sample buffer, and resolved by electrophoresis in 15% polyacrylamide: bis-acrylamide (30%:0.15%) gels.

[5] = test system: productive elongation (runoff transcripts) by RNA polymerase II in KcN; type: biochemical, Drosophila; details: for IC50: read-out: 50% inhibition point of runoff transcription
[6] = test system: Drosophila P-TEFb; type: biochemical; details: for inhibition of P-TEFb CTD kinase at higher ATP: 100 μM ATP
Protocol: 0.4 μl of purified RNA polymerase II and various protein samples were mixed in 18 μl of 55 mM HMK. The reaction was then initiated by the addition of 2 μl of a solution containing 2 μCi of [γ-^32P]ATP (ICN) and unlabeled ATP at 10 μM, or only unlabeled ATP at concentrations from 1 to 100 μM or other NTPs or dNTPs at concentrations of 1 to 100 μM. Reactions were incubated for the indicated times at 23° C. and then terminated with SDS loading buffer. Samples were analyzed on a 6–15% SDS polyacrylamide gel which was silver stained, dried and subjected to autoradiography if the assay contained label.

T1 sequence (P50750 whole entry): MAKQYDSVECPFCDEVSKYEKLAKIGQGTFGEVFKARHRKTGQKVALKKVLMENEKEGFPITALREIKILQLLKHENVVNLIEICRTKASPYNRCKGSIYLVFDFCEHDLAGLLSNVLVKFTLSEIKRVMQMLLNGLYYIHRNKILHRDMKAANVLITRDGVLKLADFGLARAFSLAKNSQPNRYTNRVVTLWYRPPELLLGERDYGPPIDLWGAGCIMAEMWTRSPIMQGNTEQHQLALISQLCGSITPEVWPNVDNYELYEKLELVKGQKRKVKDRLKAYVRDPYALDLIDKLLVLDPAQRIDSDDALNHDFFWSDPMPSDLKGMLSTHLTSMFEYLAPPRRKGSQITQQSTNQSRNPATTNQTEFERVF
T1 sequence (O60563 whole entry partner): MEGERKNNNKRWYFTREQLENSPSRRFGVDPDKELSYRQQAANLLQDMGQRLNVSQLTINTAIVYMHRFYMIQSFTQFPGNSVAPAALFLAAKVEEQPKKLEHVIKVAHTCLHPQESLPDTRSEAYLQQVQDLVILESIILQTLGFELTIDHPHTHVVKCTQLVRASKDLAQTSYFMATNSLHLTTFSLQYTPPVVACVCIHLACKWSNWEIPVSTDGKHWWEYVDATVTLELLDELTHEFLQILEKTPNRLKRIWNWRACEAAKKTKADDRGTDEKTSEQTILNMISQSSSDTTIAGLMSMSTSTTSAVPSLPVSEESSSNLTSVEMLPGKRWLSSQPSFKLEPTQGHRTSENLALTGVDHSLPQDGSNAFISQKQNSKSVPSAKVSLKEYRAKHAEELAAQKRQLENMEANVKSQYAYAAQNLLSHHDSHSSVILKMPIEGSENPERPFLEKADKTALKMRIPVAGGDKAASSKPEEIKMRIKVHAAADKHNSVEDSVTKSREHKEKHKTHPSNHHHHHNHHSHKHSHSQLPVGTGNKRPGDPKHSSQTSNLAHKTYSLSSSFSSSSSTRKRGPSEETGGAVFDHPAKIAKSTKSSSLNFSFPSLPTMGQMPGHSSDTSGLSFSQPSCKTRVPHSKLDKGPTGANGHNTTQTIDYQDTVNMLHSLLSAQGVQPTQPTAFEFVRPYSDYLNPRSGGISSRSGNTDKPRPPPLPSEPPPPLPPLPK
T2 sequence (P50750 whole entry, the tested form may be a part): as the sequence (P50750 whole entry) above
T2 sequence (O60563 whole entry, further chain, the tested form may be a part): as the sequence (O60563 whole entry partner) above
T2 sequence (P04608 1-48, further chain): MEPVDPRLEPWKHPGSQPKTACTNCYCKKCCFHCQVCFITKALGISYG

SMILES	sensitivity of phosphorylation by beads containing PITALRE ([1]; 50 μM DRB)	IC50 [1] [µM]	IC50 [2] [µM]	amount of RNA polymerase IIo [3]	TAK activity [4]	fraction of runoff generated that was DRB-sensitive [5]	IC50 [5] [µM]	inhibition of P-TEFb CTD kinase ([6]; 10 μM ATP, DRB at 10 μM)	sensitivity of CTD kinase activity of P-TEFb ([6]; 20 μM DRB)	inhibition of P-TEFb CTD kinase at higher ATP [6]	ratio of 50% inhibition points (H-8/DRB), CTD kinase assay [1]	ratio of 50% inhibition points (H-8/DRB), transcription assay [2]	effect on initiation and abortive transcription ([5]; even at concentrations that severely inhibited runoff)	amount of H-8 required relative to DRB to inhibit the kinase to the same level ([6]; 10 μM ATP)
OC[C@H]1O[C@@H](n2cnc3cc(Cl)c(Cl)cc32)[C@H](O)[C@@H]1O [DRB, 5,6-dichloro-1-β-D-ribofuranosylbenzimidazole]	sensitive	0.65	1	rapid decrease	inhibited	greater than 95%	0.7	strongly inhibited	sensitive	less effective	–	–	–	–
CNCCNS(=O)(=O)c1cccc2cnccc12 [H-8]	–	16	23	rapid decrease	inhibited	–	7	–	–	less effective	25	23	unaffected	approximately 10 times
